Experimental data published in ChEMBL document CHEMBL1130006, “Antimalarial activity of new dihydroartemisinin derivatives. 7. 4-(p-substituted phenyl)-4(R or S)-[10(alpha or beta)-dihydroartemisininoxy]butyric acids” (J Med Chem, 1997).
≈ marks a conversion by molar mass, not a printed value.

Assays:
Plasmodium falciparum [1] = assay: In vitro inhibitory concentration against Plasmodium falciparum W2 Indochina; type: functional, organism-based
Plasmodium falciparum [2] = assay: In vitro inhibitory concentration against Plasmodium falciparum D6 (Sierra Leone); type: functional, organism-based
Mus musculus [3] = assay: T/C is life span of treated mice/control at a compound dose of 4 (mg/kg); type: functional
Mus musculus [4] = species on record: Mus musculus; assay: Dose that causes 90% suppression of Plasmodium berghei parasitaemia in the treated mice (Mus musculus) compared to untreated controls.; type: functional
Mus musculus [5] = species on record: Mus musculus; assay: Dose that causes 50% suppression of Plasmodium berghei parasitaemia in the treated mice (Mus musculus) compared to untreated controls.; type: functional
Mus musculus [6] = assay: T/C is life span of treated mice/control at a compound dose of 64 (mg/kg); type: functional
Mus musculus [7] = assay: T/C is life span of treated mice/control at a compound dose of 16 (mg/kg); type: functional
Mus musculus [8] = assay: T/C is life span of treated mice/control at a compound dose of 16,(mg/kg); type: functional

Row | SMILES | IC50 (Plasmodium falciparum [1]) | IC50 (Plasmodium falciparum [2]) | T/C (Mus musculus [3]) | SD90 (Mus musculus [4]) | SD50 (Mus musculus [5]) | T/C (Mus musculus [6]) | T/C (Mus musculus [7]) | T/C (Mus musculus [8])
1 | COC(=O)CC[C@@H](O[C@H]1O[C@@H]2O[C@@]3(C)CC[C@H]4[C@H](C)CCC([C@H]1C)[C@@]24OO3)c1ccc(Cl)cc1 (stereo not given in full) | 0.656 ng/mL (≈ 1.33 nM) | 0.391 ng/mL (≈ 0.79 nM) | – | – | – | – | – | –
2 | COC(=O)CC[C@@H](O[C@@H]1O[C@@H]2O[C@@]3(C)CC[C@H]4[C@H](C)CCC([C@H]1C)[C@@]24OO3)c1ccc(Cl)cc1 (stereo not given in full) | 0.629 ng/mL (≈ 1.27 nM) | 0.728 ng/mL (≈ 1.47 nM) | – | – | – | – | – | –
3 | C[C@@H]1CCC2[C@@H](C)[C@H](OC(CCC(=O)O)c3ccc(Br)cc3)O[C@@H]3OC4(C)CC[C@@H]1C23OO4 (stereo not given in full) | 0.313 ng/mL (≈ 0.596 nM) | 0.405 ng/mL (≈ 0.771 nM) | 2.7 days | 48.18 mg/kg | 16.26 mg/kg | 5.8 days | 3.5 days | –
4 | COC(=O)CCC(O[C@@H]1O[C@@H]2OC3(C)CC[C@H]4[C@H](C)CCC([C@H]1C)C24OO3)c1ccc(OC)cc1 (stereo not given in full) | 0.647 ng/mL (≈ 1.32 nM) | 0.827 ng/mL (≈ 1.68 nM) | – | – | – | – | – | –
5 | C[C@H]1C(Oc2ccc(C(=O)[O-])cc2)O[C@@H]2O[C@]3(C)CC[C@H]4[C@H](C)CCC1C24OO3.[Na+] (stereo not given in full) | – | – | – | – | 56 mg/kg | 4.3 days | 2.7 days | –
6 | C[C@@H]1CCC2[C@@H](C)[C@H](OC(CCC(=O)O)c3ccc(F)cc3)O[C@@H]3OC4(C)CC[C@@H]1C23OO4 (stereo not given in full) | 1.34 ng/mL (≈ 2.88 nM) | 2.21 ng/mL (≈ 4.76 nM) | 1.5 days | 58.07 mg/kg | 28.16 mg/kg | 3.3 days | 2.8 days | –
7 | COc1ccc(C(CCC(=O)O)O[C@@H]2O[C@@H]3OC4(C)CC[C@H]5[C@H](C)CCC([C@H]2C)C35OO4)cc1 (stereo not given in full) | 3.45 ng/mL (≈ 7.24 nM) | 3.82 ng/mL (≈ 8.01 nM) | 1.7 days | 54.99 mg/kg | 25.06 mg/kg | 4 days | 2.5 days | –
8 | C[C@@H]1CCC2[C@@H](C)[C@@H](OC(CCC(=O)O)c3ccc(Cl)cc3)O[C@@H]3OC4(C)CC[C@@H]1C23OO4 (stereo not given in full) | 1.26 ng/mL (≈ 2.62 nM) | 2.4 ng/mL (≈ 5 nM) | – | – | – | – | – | –
9 | COC(=O)CCC(O[C@@H]1O[C@@H]2OC3(C)CC[C@H]4[C@H](C)CCC([C@H]1C)C24OO3)c1ccc(Br)cc1 (stereo not given in full) | 0.543 ng/mL (≈ 1.01 nM) | 0.673 ng/mL (≈ 1.25 nM) | – | – | – | – | – | –
10 | C[C@@H]1CCC2[C@@H](C)[C@@H](OC(CCC(=O)O)c3ccc(Br)cc3)O[C@@H]3OC4(C)CC[C@@H]1C23OO4 (stereo not given in full) | 0.419 ng/mL (≈ 0.797 nM) | 1.36 ng/mL (≈ 2.59 nM) | – | – | – | – | – | –
11 | COC(=O)CCC(O[C@@H]1O[C@@H]2OC3(C)CC[C@H]4[C@H](C)CCC([C@H]1C)C24OO3)c1ccc(F)cc1 (stereo not given in full) | 0.398 ng/mL (≈ 0.832 nM) | 0.43 ng/mL (≈ 0.9 nM) | – | – | – | – | – | –
12 | C[C@@H]1CCC2[C@@H](C)[C@H](OC(CCC(=O)O)c3ccc(Cl)cc3)O[C@@H]3OC4(C)CC[C@@H]1C23OO4 (stereo not given in full) | 0.357 ng/mL (≈ 0.742 nM) | 0.38 ng/mL (≈ 0.79 nM) | 2.3 days | 45.04 mg/kg | 14.39 mg/kg | 4.8 days | – | 3.8 days
13 | COC(=O)CCC(O[C@H]1O[C@@H]2OC3(C)CC[C@H]4[C@H](C)CCC([C@H]1C)C24OO3)c1ccc(Cl)cc1 (stereo not given in full) | 0.794 ng/mL (≈ 1.6 nM) | 0.903 ng/mL (≈ 1.82 nM) | – | – | – | – | – | –
14 | COC(=O)CCC(O[C@H]1O[C@@H]2OC3(C)CC[C@H]4[C@H](C)CCC([C@H]1C)C24OO3)c1ccc(Br)cc1 (stereo not given in full) | 0.62 ng/mL (≈ 1.15 nM) | 1.01 ng/mL (≈ 1.87 nM) | – | – | – | – | – | –
15 | COC(=O)CCC(O[C@H]1O[C@@H]2OC3(C)CC[C@H]4[C@H](C)CCC([C@H]1C)C24OO3)c1ccc(F)cc1 (stereo not given in full) | 0.488 ng/mL (≈ 1.02 nM) | 0.616 ng/mL (≈ 1.29 nM) | – | – | – | – | – | –
16 | C[C@@H]1CCC2[C@@H](C)[C@@H](OC(CCC(=O)O)c3ccc(F)cc3)O[C@@H]3OC4(C)CC[C@@H]1C23OO4 (stereo not given in full) | 0.828 ng/mL (≈ 1.78 nM) | 2.33 ng/mL (≈ 5.02 nM) | – | – | – | – | – | –
17 | C[C@@H]1CC[C@H]2[C@@H](C)C(=O)O[C@@H]3O[C@@]4(C)CC[C@@H]1[C@]32OO4 [ARTEMISININ] | 2.14 ng/mL (≈ 7.57 nM) | 3.91 ng/mL (≈ 13.9 nM) | – | – | – | – | – | –
